Test results taken from patent US9695155B2, “Herbicidal substituted pyrimidinyloxy benzene compounds” (E. I. DU PONT DE NEMOURS AND COMPANY, priority 2013, dated 2017).

Experiments:
barnyardgrass [1] = assay: Test A preemergence; type: in vivo, Echinochloa crus-galli; conditions: for Barnyardgrass plant response rating (0 to 100 scale, 0 is no effect, 100 is complete control): 125 g ai/ha; for Barnyardgrass plant response rating: 500 g ai/ha, 0 to 100 scale where 0 is no effect and 100 is complete control
Procedure, shortened: (§1)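 Scoring: eye-based comparison with untreated controls, 0 for no effect through 100 for complete control, at about day 10. Treatments: directed soil spray preemergence; foliar spray postemergence on 2–10 cm plants at the one- to two-leaf stage. Medium: loam soil with sand.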

morningglory [2] = assay: Test A postemergence; type: in vivo, Ipomoea spp.; conditions: 0 to 100 scale where 0 is no effect and 100 is complete control; for Morningglory plant response rating: 125 g ai/ha; for Plant response rating, Morningglory: 500 g ai/ha
Procedure, shortened: as §1

corn [3] = assay: Test A postemergence; type: in vivo, Zea mays; conditions: 0 to 100 scale where 0 is no effect and 100 is complete control; for Corn plant response rating: 125 g ai/ha; for Plant response rating, Corn: 500 g ai/ha
Procedure, shortened: as §1

rice [4] = assay: Test B flooded paddy test; type: in vivo, Oryza sativa; conditions: Flood, 250 g ai/ha; 0 to 100 scale where 0 is no effect and 100 is complete control
Procedure, shortened: (§2)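 Flooded to 3 cm at the 2-leaf stage, pots received compound through the paddy water and were kept at that depth under greenhouse conditions. After 13–15 days, effect was rated by eye relative to controls, 0 = none and 100 = complete control.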

large (Lg) crabgrass [5] = assay: Test A preemergence; type: in vivo, Digitaria sanguinalis; conditions: for Crabgrass, Large plant response rating (0 to 100 scale): 125 g ai/ha; for Crabgrass, Large plant response rating: 500 g ai/ha, 0 to 100 scale where 0 is no effect and 100 is complete control
Procedure, shortened: as §1

barnyardgrass [6] = assay: Test A postemergence; type: in vivo, Echinochloa crus-galli; conditions: 0 to 100 scale where 0 is no effect and 100 is complete control; for Barnyardgrass plant response rating: 125 g ai/ha; for Plant response rating, Barnyardgrass: 500 g ai/ha
Procedure, shortened: as §1

velvetleaf [7] = assay: Test A postemergence; type: in vivo, Abutilon theophrasti; conditions: 0 to 100 scale where 0 is no effect and 100 is complete control; for Velvetleaf plant response rating: 125 g ai/ha; for Plant response rating, Velvetleaf: 500 g ai/ha
Procedure, shortened: as §1

pigweed [8] = assay: Test A postemergence; type: in vivo, Amaranthus retroflexus; conditions: 0 to 100 scale where 0 is no effect and 100 is complete control; for Pigweed plant response rating: 125 g ai/ha; for Plant response rating, Pigweed: 500 g ai/ha
Procedure, shortened: as §1

barnyardgrass [9] = assay: Test C flooded paddy test; type: in vivo, Echinochloa crus-galli; conditions: Flood, scale 0 to 100 (0 no effect, 100 complete control), 13 to 15 days
Procedure, shortened: (§3)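 Pots were flooded to 3 cm above the soil surface at treatment, compound applied directly to the paddy water, and that depth held throughout. Plants were kept in a greenhouse for 13 to 15 days, then visually rated against untreated controls.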

giant foxtail [10] = assay: Test A preemergence; type: in vivo, Setaria faberii; conditions: for Foxtail, Giant plant response rating (0 to 100 scale): 125 g ai/ha; for Foxtail, Giant plant response rating: 500 g ai/ha, 0 to 100 scale where 0 is no effect and 100 is complete control
Procedure, shortened: as §1

rice [11] = assay: Test C flooded paddy test; type: in vivo, Oryza sativa; conditions: Flood, scale 0 to 100 (0 no effect, 100 complete control), 13 to 15 days
Procedure, shortened: as §3

corn [12] = assay: Test A preemergence; type: in vivo, Zea mays; conditions: for Corn plant response rating (0 to 100 scale): 125 g ai/ha; for Corn plant response rating: 500 g ai/ha, 0 to 100 scale where 0 is no effect and 100 is complete control
Procedure, shortened: as §1

morningglory [13] = assay: Test A preemergence; type: in vivo, Ipomoea spp.; conditions: for Morningglory plant response rating (0 to 100 scale): 125 g ai/ha; for Morningglory plant response rating: 500 g ai/ha, 0 to 100 scale where 0 is no effect and 100 is complete control
Procedure, shortened: as §1

pigweed [14] = assay: Test A preemergence; type: in vivo, Amaranthus retroflexus; conditions: for Pigweed plant response rating (0 to 100 scale): 125 g ai/ha; for Pigweed plant response rating: 500 g ai/ha, 0 to 100 scale where 0 is no effect and 100 is complete control
Procedure, shortened: as §1

ducksalad = assay: Test C flooded paddy test; type: in vivo, Heteranthera limosa; conditions: Flood, scale 0 to 100 (0 no effect, 100 complete control), 13 to 15 days
Procedure, shortened: as §3

wheat [15] = assay: Test A postemergence; type: in vivo, Triticum aestivum; conditions: 0 to 100 scale where 0 is no effect and 100 is complete control; for Wheat plant response rating: 125 g ai/ha; for Plant response rating, Wheat: 500 g ai/ha
Procedure, shortened: as §1

Heteranthera limosa = assay: Test B flooded paddy test; type: in vivo; conditions: Flood, 250 g ai/ha; 0 to 100 scale where 0 is no effect and 100 is complete control
Procedure, shortened: as §2

sedge, umbrella [16] = assay: Test B flooded paddy test; type: in vivo, Cyperus difformis; conditions: Flood, 250 g ai/ha; 0 to 100 scale where 0 is no effect and 100 is complete control
Procedure, shortened: as §2

giant foxtail [17] = assay: Test A postemergence; type: in vivo, Setaria faberii; conditions: 0 to 100 scale where 0 is no effect and 100 is complete control; for Foxtail, Giant plant response rating: 125 g ai/ha; for Plant response rating, Foxtail, Giant: 500 g ai/ha
Procedure, shortened: as §1

sedge, umbrella [18] = assay: Test C flooded paddy test; type: in vivo, Cyperus difformis; conditions: Flood, scale 0 to 100 (0 no effect, 100 complete control), 13 to 15 days
Procedure, shortened: as §3

velvetleaf [19] = assay: Test A preemergence; type: in vivo, Abutilon theophrasti; conditions: for Velvetleaf plant response rating (0 to 100 scale): 125 g ai/ha; for Velvetleaf plant response rating: 500 g ai/ha, 0 to 100 scale where 0 is no effect and 100 is complete control
Procedure, shortened: as §1

large (Lg) crabgrass [20] = assay: Test A postemergence; type: in vivo, Digitaria sanguinalis; conditions: 0 to 100 scale where 0 is no effect and 100 is complete control; for Crabgrass, Large plant response rating: 125 g ai/ha; for Plant response rating, Crabgrass, Large: 500 g ai/ha
Procedure, shortened: as §1

barnyardgrass [21] = assay: Test B flooded paddy test; type: in vivo, Echinochloa crus-galli; conditions: Flood, 250 g ai/ha; 0 to 100 scale where 0 is no effect and 100 is complete control
Procedure, shortened: as §2

wheat [22] = assay: Test A preemergence; type: in vivo, Triticum aestivum; conditions: for Wheat plant response rating (0 to 100 scale): 125 g ai/ha; for Wheat plant response rating: 500 g ai/ha, 0 to 100 scale where 0 is no effect and 100 is complete control
Procedure, shortened: as §1

C#Cc1cnn(-c2ccccc2Oc2ncc(Cl)cn2)c1 [Compound 188]
0: Plant response rating, Rice (rice [4]) | Plant response rating, Barnyardgrass (barnyardgrass [9]; 31 g ai/ha) | Plant response rating, Barnyardgrass (barnyardgrass [9]; 62 g ai/ha) | Plant response rating, Barnyardgrass (barnyardgrass [9]; 125 g ai/ha) | Plant response rating, Barnyardgrass (barnyardgrass [9]; 250 g ai/ha) | Plant response rating, Rice (rice [11]; 31 g ai/ha) | Plant response rating, Rice (rice [11]; 62 g ai/ha) | Plant response rating, Rice (rice [11]; 125 g ai/ha) | Plant response rating, Rice (rice [11]; 250 g ai/ha) | Corn plant response rating (0 to 100 scale) (corn [12]) | Plant response rating, Ducksalad (ducksalad; 31 g ai/ha) | Plant response rating, Ducksalad (ducksalad; 62 g ai/ha) | Wheat plant response rating (wheat [15]) | Plant response rating, Sedge, Umbrella (sedge, umbrella [18]; 31 g ai/ha) | Plant response rating, Sedge, Umbrella (sedge, umbrella [18]; 62 g ai/ha) | Wheat plant response rating (0 to 100 scale) (wheat [22])
70: Velvetleaf plant response rating (0 to 100 scale) (velvetleaf [19])
90: Crabgrass, Large plant response rating (0 to 100 scale) (large (Lg) crabgrass [5]) | Plant response rating, Barnyardgrass (barnyardgrass [6]) | Velvetleaf plant response rating (velvetleaf [7]) | Foxtail, Giant plant response rating (0 to 100 scale) (giant foxtail [10]) | Morningglory plant response rating (morningglory [13]) | Plant response rating, Ducksalad (Heteranthera limosa) | Plant response rating, Sedge, Umbrella (sedge, umbrella [16]) | Plant response rating, Foxtail, Giant (giant foxtail [17])
20: Corn plant response rating (corn [3]) | Corn plant response rating (corn [12])
60: Plant response rating, Ducksalad (ducksalad; 250 g ai/ha) | Foxtail, Giant plant response rating (giant foxtail [17])
40: Morningglory plant response rating (morningglory [2]) | Plant response rating, Ducksalad (ducksalad; 125 g ai/ha)
100: Barnyardgrass plant response rating (barnyardgrass [1]) | Plant response rating, Morningglory (morningglory [2]) | Crabgrass, Large plant response rating (large (Lg) crabgrass [5]) | Plant response rating, Velvetleaf (velvetleaf [7]) | Pigweed plant response rating (pigweed [8]) | Plant response rating, Pigweed (pigweed [8]) | Foxtail, Giant plant response rating (giant foxtail [10]) | Pigweed plant response rating (0 to 100 scale) (pigweed [14]) | Pigweed plant response rating (pigweed [14]) | Velvetleaf plant response rating (velvetleaf [19])
75: Plant response rating, Sedge, Umbrella (sedge, umbrella [18]; 250 g ai/ha)
10: Morningglory plant response rating (0 to 100 scale) (morningglory [13])
30: Barnyardgrass plant response rating (0 to 100 scale, 0 is no effect, 100 is complete control) (barnyardgrass [1]) | Barnyardgrass plant response rating (barnyardgrass [6]) | Plant response rating, Wheat (wheat [15]) | Plant response rating, Barnyardgrass (barnyardgrass [21]) | Wheat plant response rating (wheat [22])
50: Plant response rating, Corn (corn [3]) | Plant response rating, Sedge, Umbrella (sedge, umbrella [18]; 125 g ai/ha) | Crabgrass, Large plant response rating (large (Lg) crabgrass [20])
80: Plant response rating, Crabgrass, Large (large (Lg) crabgrass [20])

CON=Cc1cccc(Oc2ncc(Cl)cn2)c1-n1cc(Br)cn1 [Compound 203]
0: Plant response rating, Rice (rice [11]; 31 g ai/ha) | Corn plant response rating (0 to 100 scale) (corn [12]) | Corn plant response rating (corn [12]) | Morningglory plant response rating (0 to 100 scale) (morningglory [13]) | Plant response rating, Ducksalad (ducksalad; 31 g ai/ha) | Wheat plant response rating (wheat [15]) | Plant response rating, Barnyardgrass (barnyardgrass [21]) | Wheat plant response rating (0 to 100 scale) (wheat [22]) | Wheat plant response rating (wheat [22])
50: Plant response rating, Corn (corn [3]) | Plant response rating, Barnyardgrass (barnyardgrass [9]; 62 g ai/ha) | Plant response rating, Barnyardgrass (barnyardgrass [9]; 125 g ai/ha) | Plant response rating, Ducksalad (ducksalad; 62 g ai/ha) | Plant response rating, Sedge, Umbrella (sedge, umbrella [18]; 31 g ai/ha)
85: Plant response rating, Sedge, Umbrella (sedge, umbrella [18]; 125 g ai/ha)
30: Corn plant response rating (corn [3]) | Velvetleaf plant response rating (0 to 100 scale) (velvetleaf [19])
90: Plant response rating, Velvetleaf (velvetleaf [7]) | Plant response rating, Pigweed (pigweed [8]) | Foxtail, Giant plant response rating (0 to 100 scale) (giant foxtail [10]) | Pigweed plant response rating (0 to 100 scale) (pigweed [14]) | Plant response rating, Ducksalad (Heteranthera limosa) | Plant response rating, Sedge, Umbrella (sedge, umbrella [16])
60: Crabgrass, Large plant response rating (large (Lg) crabgrass [20])
10: Barnyardgrass plant response rating (0 to 100 scale, 0 is no effect, 100 is complete control) (barnyardgrass [1]) | Plant response rating, Rice (rice [4]) | Morningglory plant response rating (morningglory [13])
100: Crabgrass, Large plant response rating (0 to 100 scale) (large (Lg) crabgrass [5]) | Crabgrass, Large plant response rating (large (Lg) crabgrass [5]) | Foxtail, Giant plant response rating (giant foxtail [10]) | Pigweed plant response rating (pigweed [14])
20: Morningglory plant response rating (morningglory [2]) | Plant response rating, Rice (rice [11]; 62 g ai/ha) | Plant response rating, Rice (rice [11]; 125 g ai/ha) | Plant response rating, Wheat (wheat [15])
40: Barnyardgrass plant response rating (barnyardgrass [1]) | Barnyardgrass plant response rating (barnyardgrass [6]) | Plant response rating, Barnyardgrass (barnyardgrass [9]; 31 g ai/ha) | Velvetleaf plant response rating (velvetleaf [19])
75: Plant response rating, Sedge, Umbrella (sedge, umbrella [18]; 62 g ai/ha)
80: Velvetleaf plant response rating (velvetleaf [7]) | Plant response rating, Foxtail, Giant (giant foxtail [17]) | Plant response rating, Crabgrass, Large (large (Lg) crabgrass [20])
70: Plant response rating, Morningglory (morningglory [2]) | Plant response rating, Barnyardgrass (barnyardgrass [6]) | Pigweed plant response rating (pigweed [8]) | Plant response rating, Ducksalad (ducksalad; 125 g ai/ha) | Foxtail, Giant plant response rating (giant foxtail [17])
